# Paper PMC4027206, “Crystal structure of Saccharomyces cerevisiae mitochondrial GatFAB reveals a novel subunit assembly in tRNA-dependent amidotransferases” (Nucleic Acids Research, 2014)
# What was measured:
# [1] = molecular target: T1, GatFABF24–183 (pseudo-wild-type, full-length GatFAB) (Saccharomyces cerevisiae, UniProt Q03557); assay: glutaminase assay, […]Gln, TLC; assay type: biochemical; conditions: 50 μM [14C]L-glutamine; Glu-tRNA^Gln, ATP, 12 mM MgCl2, pH 7.2, 37°C; labelled compound
# T1 construct: gene HER2; heterotrimer; E. coli host; with Glutamyl-tRNA(Gln) amidotransferase subunit B, mitochondrial; Glutamyl-tRNA(Gln) amidotransferase subunit F, mitochondrial
# T1 sequence (Q03557 1-464): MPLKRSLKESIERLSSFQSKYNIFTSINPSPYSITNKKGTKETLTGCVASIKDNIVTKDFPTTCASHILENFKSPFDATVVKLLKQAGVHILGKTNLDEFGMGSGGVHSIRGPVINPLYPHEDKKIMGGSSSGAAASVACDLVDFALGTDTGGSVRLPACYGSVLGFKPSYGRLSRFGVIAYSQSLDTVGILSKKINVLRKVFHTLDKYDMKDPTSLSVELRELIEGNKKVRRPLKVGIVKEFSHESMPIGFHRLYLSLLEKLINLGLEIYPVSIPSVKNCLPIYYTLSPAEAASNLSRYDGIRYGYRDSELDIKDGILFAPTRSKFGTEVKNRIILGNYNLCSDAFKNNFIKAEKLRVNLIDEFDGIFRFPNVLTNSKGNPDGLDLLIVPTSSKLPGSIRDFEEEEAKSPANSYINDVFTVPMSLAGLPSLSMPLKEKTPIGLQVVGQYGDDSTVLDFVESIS
# T1 sequence (P33893 16-541 partner): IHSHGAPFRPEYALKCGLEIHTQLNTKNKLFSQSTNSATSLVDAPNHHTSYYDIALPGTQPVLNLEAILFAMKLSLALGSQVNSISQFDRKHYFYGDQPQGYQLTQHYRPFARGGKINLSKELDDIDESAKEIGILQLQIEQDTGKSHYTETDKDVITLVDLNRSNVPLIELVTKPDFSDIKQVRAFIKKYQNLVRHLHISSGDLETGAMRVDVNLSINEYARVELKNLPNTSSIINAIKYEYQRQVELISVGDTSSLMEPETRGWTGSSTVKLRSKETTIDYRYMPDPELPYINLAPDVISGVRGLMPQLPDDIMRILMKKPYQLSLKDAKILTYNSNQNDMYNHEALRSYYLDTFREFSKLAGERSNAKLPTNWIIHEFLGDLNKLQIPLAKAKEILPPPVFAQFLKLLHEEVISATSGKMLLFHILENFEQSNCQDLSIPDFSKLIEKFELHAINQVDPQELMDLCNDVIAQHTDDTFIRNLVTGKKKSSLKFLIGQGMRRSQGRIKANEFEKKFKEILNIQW
# T1 sequence (P53260 24-183 partner): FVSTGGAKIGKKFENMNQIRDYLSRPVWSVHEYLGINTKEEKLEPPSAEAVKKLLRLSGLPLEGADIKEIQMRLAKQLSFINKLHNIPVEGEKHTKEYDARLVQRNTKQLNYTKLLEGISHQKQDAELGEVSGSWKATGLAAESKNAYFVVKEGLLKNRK
# [2] = molecular target: T2, GatFABΔHY (Saccharomyces cerevisiae, UniProt Q03557); assay: X-ray crystal structure, […] Å; assay type: binding; conditions: 10 mM glutamine added before crystallization; GatA glutaminase site (R334, D418, near S154)
# T2 construct: gene HER2; heterotrimer; E. coli host; with Glutamyl-tRNA(Gln) amidotransferase subunit B, mitochondrial; Glutamyl-tRNA(Gln) amidotransferase subunit F, mitochondrial
# T2 sequence (Q03557 1-464): T1 sequence (Q03557 1-464)
# T2 sequence (P33893 16-329 partner): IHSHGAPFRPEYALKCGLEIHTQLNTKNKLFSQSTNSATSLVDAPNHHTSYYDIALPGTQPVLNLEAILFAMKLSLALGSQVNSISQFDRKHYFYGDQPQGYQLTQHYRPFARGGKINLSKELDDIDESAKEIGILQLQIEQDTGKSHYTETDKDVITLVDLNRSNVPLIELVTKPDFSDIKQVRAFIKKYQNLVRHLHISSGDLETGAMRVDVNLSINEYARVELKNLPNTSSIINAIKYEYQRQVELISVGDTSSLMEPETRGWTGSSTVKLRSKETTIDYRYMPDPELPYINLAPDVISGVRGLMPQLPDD
# T2 sequence (P53260 24-183 partner): T1 sequence (P53260 24-183 partner)
smiles,measurement,setting,value
NC(=O)CC[C@H](N)C(=O)O [glutamine],"glutaminase assay, [14C]Gln, TLC",[1],reduced activities in both GatA-mediated glutamine-hydrolysis and GatB-mediated transamidation when compared to that of the full-length
same,"X-ray crystal structure, 2.0 Å",[2],the glutamine molecule is bound to the glutaminase site of GatA
